The values that follow are results of earlier work, collected in patent publication US8999893B2, “Stabilized oil-in-water emulsions including meptyl dinocap” (Dow AgroSciences LLC, priority 2008, dated 2015).

For “2,6-dinitro-4-octylphenyl crotonates and 2,4-dinitro-6-octylphenyl crotonates in which ‘octyl’ is a mixture of 1-methylheptyl, 1-ethylhexyl and 1-propylpentyl groups [Meptyl Dinocap]”, the solubility in water is 0.151 µg/mL.
